# Literature values as cited in patent publication US9687466B2, “Use of dianhydrogalactitol and analogs and derivatives thereof to treat glioblastoma multiforme” (DELMAR PHARMACEUTICALS, INC., priority 0212, dated 2017).
# Conditions: cited from earlier work
smiles,measurement,value
O[C@H]([C@H](O)[C@@H](O)CBr)[C@H](O)CBr [dibromodulcitol],absorption by the oral route,rapid and fairly complete
